Test [1] deals with T1, bovine cardiac myofibrils (Bos taurus, UniProt Q9BE39).
T1 construct: full-length cardiac myosin in the context of the native sarcomere; from tissue; host or cells: bovine cardiac left ventricular tissue (Triton X-100 skinned myofibrils)
Briefly: Skinned bovine cardiac myofibril ATPase assay (PK/LDH-coupled). It is filed as biochemical. Particulars: steady-state ATPase, Ca2+ giving 75% activation of myofibril ATPase. The method, then:
To evaluate the effect of (R)—N-(5-(5-isopropyl-1,2,4-oxadiazol-3-yl)-2,3-dihydro-1H-inden-1-yl)-2-methyl-2H-tetrazole-5-carboxamide on the ATPase activity of full-length cardiac myosin in the context of the native sarcomere, skinned myofibril assays were performed. Bovine cardiac myofibrils were obtained by homogenizing bovine cardiac left ventricular tissue in the presence of a detergent such as triton X-100. Such treatment removes membranes and a majority of the soluble cytoplasmic proteins but leaves intact the cardiac sarcomeric acto-myosin apparatus. Myofibril preparations retain the ability to hydrolyze ATP in a Ca^2+ regulated manner. […] Small molecule agents were assessed for their ability to inhibit the steady-state ATPase activity of bovine cardiac myofibrils using pyruvate kinase and lactate dehydrogenase (PK/LDH)-coupled enzyme system. This assay regenerates myosin-produced ADP into ATP by oxidizing NADH, producing an absorbance change at 340 nm. Prior to testing small molecule agents, the bovine cardiac myofibrils were assessed for their calcium responsiveness and the calcium concentration that achieves either a 50% (pCa50) or 75% (pCa75) activation of the myofibril system was chosen as the final condition for assessing the inhibitory activity of the small molecule agents.

Test [2] concerns cardiac fractional shortening. Briefly: Echocardiography of rat cardiac contractility, continuous IV infusion. In kind it is in vivo, Sprague Dawley rats. Particulars: Mean±S.D., read-out: estimated IC50 (plasma concentration at which fractional shortening is 50% of pre-dose baseline). As for the experimental part:
(§1) Assessment of in vivo cardiac function by echocardiography was performed in male Sprague Dawley rats under isoflurane (1-3%) anesthesia. 2-D M-mode images of the left ventricle were acquired in the parasternal long-axis view before, during, and after administration of compounds by continuous IV infusion or oral gavage. In vivo fractional shortening was determined by M-mode image analysis with the following calculation: ((End diastolic diameter−end systolic diameter)/end diastolic diameter×100). For continuous IV infusion experiments, three pre-dose baseline M-mode images were taken at 1 minute intervals prior to infusion of compound. Compounds were formulated in 50% Propylene Glycol (PG): 16% Captisol: 10% dimethylacetamide (DMA) and delivered via a jugular vein catheter at the rate of 1 mL/kg/h. During infusion, M-mode images were taken at 5 minute intervals. The infusion stopped when fractional shortening reached up to a 60% reduction from baseline. Blood samples were taken to determine the plasma concentration of the compounds. Data was reported as an estimated IC50 value, which is the concentration at which fractional shortening is 50% of the pre-dose baseline contractility.

Test [3] deals with cardiac fractional shortening. Briefly: Echocardiography of rat cardiac contractility, oral dosing. In kind it is in vivo, Sprague Dawley rats. As for the experimental part:
as §1, with “contractility. […] For oral dosing studies, three pre-dose baseline M-Mode images were taken at 1 minute intervals prior to compound administration. (R)—N-(5-(5-isopropyl-1,2,4-oxadiazol-3-yl)-2,3-dihydro-1H-inden-1-yl)-2-methyl-2H-tetrazole-5-carboxamide was formulated in a 0.5% hydroxypropyl methylcellulose 2910 (HPMC 2910): 0.1% Tween 80 suspension and delivered as a single dose (5 mL/kg) by oral gavage. Rats were lightly anesthetized for M-Mode echocardiography measurements at select time points over a 24 hour period. Different dose levels were evaluated. The compound effect on cardiac fractional shortening at the highest dose evaluated is presented below as a percent reduction of baseline fractional shortening (=100%). Concurrent with echocardiography measurements, blood samples were taken to determine the corresponding compound plasma concentration.” for “contractility.”

For test [4], the system named is adult rat ventricular myocytes. As to the kind of experiment: Myocyte contractility assay (fractional shortening, edge detection). In kind it is cell-based, Sprague-Dawley rats. Particulars: 5 μM, 5 min perfusion, 5 cells tested. As for the experimental part:
Adult male Sprague-Dawley rats were anesthetized and the hearts were quickly excised, rinsed and the ascending aorta was cannulated. Continuous retrograde perfusion was initiated on the hearts at a perfusion pressure of 60 cm H2O. Hearts were first perfused with a nominally Ca^2+-free modified Krebs solution of the following composition: 113 mM NaCl, 4.7 mM KCl, 0.6 mM KH2PO4, 0.6 mM Na2HPO4, 1.2 mM MgSO4, 12 mM NaHCO3, 10 mM KHCO3, 30 mM taurine, 5.5 mM glucose and 10 mM Hepes (all Sigma). This medium is not recirculated and is continually aerated with a 95% O2/5% CO2 mixture. […]
Aliquots of myocytes in Tyrode's buffer were placed in perfusion chambers (series 20 RC-27NE; Warner Instruments) complete with heating platforms. […] Contractility of the myocytes and contraction and relaxation velocities were then recorded using edge detection.
Five or more individual myocytes were tested per compound from two or more different myocyte preparations. […] These average transients were analyzed using the IonWizard software (IonOptix) to determine changes in diastolic length and fractional shortening. Fractional shortening was calculated as: ((resting length−length at peak contraction) divided by the resting length). The percent change in fractional shortening from baseline was calculated as: ((post-dose fractional shortening/basal fractional shortening)*100). […]

This is an account of results in patent US12649732B2, “Polymorphs of (R)-N-(5-(5-isopropyl-1,2,4-oxadiazol-3-yl)-2,3-dihydro-1H-inden-1-yl)-2-methyl-2H-tetrazole-5-carboxamide” (Cytokinetics, Inc., priority 2019, dated 2026).

T1 sequence (Q9BE39 whole entry): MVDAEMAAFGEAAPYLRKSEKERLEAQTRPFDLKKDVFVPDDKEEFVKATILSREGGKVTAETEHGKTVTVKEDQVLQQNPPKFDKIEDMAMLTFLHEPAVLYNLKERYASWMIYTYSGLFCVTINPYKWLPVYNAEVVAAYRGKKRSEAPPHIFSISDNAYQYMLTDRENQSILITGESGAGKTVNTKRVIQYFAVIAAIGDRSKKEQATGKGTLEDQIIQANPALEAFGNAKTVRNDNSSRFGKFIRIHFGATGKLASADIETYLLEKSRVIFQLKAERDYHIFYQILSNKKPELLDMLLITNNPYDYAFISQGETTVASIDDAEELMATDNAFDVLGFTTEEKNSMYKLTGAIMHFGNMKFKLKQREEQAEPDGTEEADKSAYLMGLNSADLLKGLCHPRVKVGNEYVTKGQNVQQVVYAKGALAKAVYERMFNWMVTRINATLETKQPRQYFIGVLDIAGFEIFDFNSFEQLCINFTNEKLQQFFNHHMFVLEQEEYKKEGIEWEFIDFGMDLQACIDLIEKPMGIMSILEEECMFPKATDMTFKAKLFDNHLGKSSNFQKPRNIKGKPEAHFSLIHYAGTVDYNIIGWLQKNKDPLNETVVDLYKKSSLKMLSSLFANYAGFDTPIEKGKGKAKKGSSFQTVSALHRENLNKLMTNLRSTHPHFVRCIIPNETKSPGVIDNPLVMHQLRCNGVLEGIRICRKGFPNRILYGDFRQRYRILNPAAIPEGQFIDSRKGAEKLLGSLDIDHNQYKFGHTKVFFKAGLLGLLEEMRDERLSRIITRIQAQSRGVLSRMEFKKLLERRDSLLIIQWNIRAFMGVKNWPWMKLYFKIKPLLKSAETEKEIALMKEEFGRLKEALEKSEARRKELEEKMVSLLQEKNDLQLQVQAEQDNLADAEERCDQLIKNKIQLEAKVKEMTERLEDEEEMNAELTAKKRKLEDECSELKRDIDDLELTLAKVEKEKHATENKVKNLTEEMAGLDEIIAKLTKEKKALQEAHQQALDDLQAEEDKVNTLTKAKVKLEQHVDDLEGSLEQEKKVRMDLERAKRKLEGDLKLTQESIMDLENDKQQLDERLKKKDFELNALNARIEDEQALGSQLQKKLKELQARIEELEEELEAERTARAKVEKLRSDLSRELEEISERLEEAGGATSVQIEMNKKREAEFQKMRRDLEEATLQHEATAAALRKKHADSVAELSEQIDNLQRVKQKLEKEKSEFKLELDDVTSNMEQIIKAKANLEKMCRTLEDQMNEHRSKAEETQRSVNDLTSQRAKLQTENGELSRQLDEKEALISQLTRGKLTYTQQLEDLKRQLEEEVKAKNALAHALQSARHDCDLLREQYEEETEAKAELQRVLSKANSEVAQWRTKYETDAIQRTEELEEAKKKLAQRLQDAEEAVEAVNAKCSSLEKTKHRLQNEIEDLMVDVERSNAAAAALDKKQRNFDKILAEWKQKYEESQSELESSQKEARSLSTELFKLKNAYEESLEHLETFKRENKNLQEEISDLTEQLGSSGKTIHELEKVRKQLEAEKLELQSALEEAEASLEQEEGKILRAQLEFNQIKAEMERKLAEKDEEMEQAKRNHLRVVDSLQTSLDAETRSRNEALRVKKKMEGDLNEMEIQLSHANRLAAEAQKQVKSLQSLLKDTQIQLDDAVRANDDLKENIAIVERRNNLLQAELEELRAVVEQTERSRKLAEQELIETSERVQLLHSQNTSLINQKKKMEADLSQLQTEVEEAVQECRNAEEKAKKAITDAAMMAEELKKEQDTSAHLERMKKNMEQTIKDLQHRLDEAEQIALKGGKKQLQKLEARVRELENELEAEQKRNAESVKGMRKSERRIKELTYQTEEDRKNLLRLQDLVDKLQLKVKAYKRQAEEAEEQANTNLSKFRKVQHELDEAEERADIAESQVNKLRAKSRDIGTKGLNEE
T1 sequence (P85100 whole entry partner): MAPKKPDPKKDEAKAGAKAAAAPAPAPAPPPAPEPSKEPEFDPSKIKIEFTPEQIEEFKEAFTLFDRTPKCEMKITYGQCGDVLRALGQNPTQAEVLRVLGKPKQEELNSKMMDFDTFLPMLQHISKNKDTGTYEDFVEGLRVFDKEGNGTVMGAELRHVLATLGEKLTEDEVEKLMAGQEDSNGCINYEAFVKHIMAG
T1 sequence (Q3SZE5 whole entry partner): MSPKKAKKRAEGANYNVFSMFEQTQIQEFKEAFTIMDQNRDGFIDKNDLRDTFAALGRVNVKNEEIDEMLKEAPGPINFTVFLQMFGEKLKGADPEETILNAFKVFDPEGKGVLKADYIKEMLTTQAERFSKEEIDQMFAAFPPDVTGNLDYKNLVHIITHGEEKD

For the compound `CC(C)c1nc(-c2ccc3c(c2)CC[C@H]3NC(=O)c2nnn(C)n2)no1` [(R)—N-(5-(5-isopropyl-1,2,4-oxadiazol-3-yl)-2,3-dihydro-1H-inden-1-yl)-2-methyl-2H-tetrazole-5-carboxamide], the “IC15 (CDMF75)” value in test [1] was found to be 500 nM. For the same compound, the IC50 was 2700 ± 120 nM in test [2] and 2900 nM in test [3] (Rattus norvegicus, oral dosing, read-out: estimated IC50 (plasma concentration, fractional shortening)). The “FS (% reduction from baseline) at 1-2 h post dose (Mean ± S.D.)” value in test [3] (6 mg/kg single oral gavage, 1-2 h post dose) amounted to 40 ± 9%. In addition, the “FS (% reduction from baseline) at 4 h post dose (Mean ± S.D.)” value in test [3] (6 mg/kg single oral gavage, 4 h post dose) came to 18 ± 11%. For the same compound, in test [3] (oral dosing), the “estimated IC10 (plasma concentration, fractional shortening)” value is 700 nM. The “% FS (% reduction from baseline) ± SEM” value in test [4] was determined as 67.8 ± −5.4%.
